Results: patent US11884647B2, “Compounds and methods for targeting pathogenic blood vessels” (THE REGENTS OF THE UNIVERSITY OF CALIFORNIA, priority 2019, dated 2024)

Tested on: tumor endothelial cells (LL/2 lung cancer tumor)
Assay: Lung LL2 ex vivo model of tumor angiogenesis
Assay type: cell-based, mouse
Conditions: for cytotoxicity at 40 µM / cytotoxicity at 20 µM / cytotoxicity at 10 µM: Mus musculus, Endothelial cell, 48 h, read-out: Cell death; for Cell death: drug treatment two days
Procedure, shortened: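 Read-out is live/dead fluorescence imaging (fluorescein diacetate green, propidium iodide red, 10 min at 37° C) at 2×, taken e.g. 48 h after drug addition. Fragments of mouse LL2 tumor are cultured in Matrigel with endothelial growth medium, usually 4 days, until new endothelial cells grow out, then treated.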

With CCCCOc1ccc(S(=O)(=O)c2cnc3ccc(OC(F)(F)F)cc3c2N2CCS(=O)(=O)CC2)cc1 [compound 198, 4-(3-((4-butoxyphenyl)sulfonyl)-6-(trifluoromethoxy)quinolin-4-yl)thiomorpholine 1,1-dioxide] the cytotoxicity at 40 µM was 30%.

In the case of CCCCOc1ccc(S(=O)(=O)c2cnc3ccc(SC)cc3c2N2CCCN(c3nc4ccc(Cl)cc4s3)CC2)cc1 [compound 356, 2-(4-(3-((4-butoxyphenyl)sulfonyl)-6-(methylthio)quinolin-4-yl)-1,4-diazepan-1-yl)-6-chlorobenzo[d]thiazole], the Cell death (Lung LL2 ex vivo, Conc. 40 μm) is reported as 0%.

For CCCCOc1ccc(S(=O)(=O)c2cnc3ccc(OC(F)(F)F)cc3c2N2CC[S+]([O-])CC2)cc1 [compound 197, 4-(3-((4-butoxyphenyl)sulfonyl)-6-(trifluoromethoxy)quinolin-4-yl)thiomorpholine 1-oxide], the cytotoxicity at 40 µM was 20%.

For CCCCCCCCCCCCCCOc1ccc(S(=O)(=O)c2cnc3ccc([S+](C)[O-])cc3c2N2CCC(N3CCC(N4CCN(CCO)CC4)CC3)CC2)cc1 (centres unmarked) [compound 345, 2-(4-(1′-(6-(methylsulfinyl)-3-((4-(tetradecyloxy)phenyl)sulfonyl)quinolin-4-yl)-[1,4′-bipiperidin]-4-yl)piperazin-1-yl)ethan-1-ol], the cytotoxicity at 20 µM was 50%.

For “3-((4-(heptyloxy)phenyl)sulfonyl)-4-(4- (4-(2-mPEGoxyethyl)piperazin-1- yl)piperidin-1-yl)-6- (methylsulfinyl)quinoline [compound 280]”, the “48 hrs (morphology observations after 48 hours)” value (Lung LL2 ex vivo, Conc. 20 μm, 48 hrs) was “*** (100% of endothelial cells vesicularize in cell shape)” and the Cell death (Lung LL2 ex vivo, Conc. 20 μm) was 100%.

With CCc1ccc(S(=O)(=O)c2cnc3ccc(OC(F)(F)F)cc3c2-n2cccc2)cc1 [compound 108, 3-((4-ethylphenyl)sulfonyl)-4-(1H-pyrrol-1-yl)-6-(trifluoromethoxy)quinoline] the cytotoxicity at 20 µM was 0%.

CCCCOc1ccc(S(=O)(=O)c2cnc3ccc(C(=O)OCC)cc3c2N2CCCN(CCN3CCCCC3)CC2)cc1 [compound 181, ethyl 3-((4-butoxyphenyl)sulfonyl)-4-(4-(2-(piperidin-1-yl)ethyl)-1,4-diazepan-1-yl)quinoline-6-carboxylate] gave a cytotoxicity at 40 µM of 100%.

CCCCCCCOc1ccc(S(=O)(=O)c2cnc3ccc(SC)cc3c2N2CCN(CC3CCN(Cc4ccccc4)CC3)CC2)cc1 [compound 275, 4-(4-((1-benzylpiperidin-4-yl)methyl)piperazin-1-yl)-3-((4-(heptyloxy)phenyl)sulfonyl)-6-(methylthio)quinoline] showed a cytotoxicity at 20 µM of 5%.

In the case of CCCCOc1ccc(S(=O)(=O)c2cnc3ccc(C(=O)OCC)cc3c2-n2cnnn2)cc1 [compound 186, ethyl 3-((4-butoxyphenyl)sulfonyl)-4-(1H-tetrazol-1-yl)quinoline-6-carboxylate], the cytotoxicity at 10 µM is reported as 90%.

CCCCCCCOc1ccc(S(=O)(=O)c2cnc3ccc([S+](C)[O-])cc3c2N2CCC(N3CCC(O)(c4ccccc4)CC3)CC2)cc1 (centres unmarked) [compound 263, 1′-(3-((4-(heptyloxy)phenyl)sulfonyl)-6-(methylsulfinyl)quinolin-4-yl)-4-phenyl-[1,4′-bipiperidin]-4-ol] was tested, and the cytotoxicity at 10 µM was 100%.

COc1ccc(S(=O)(=O)c2cnc3ccc(C(=O)N(C)C)cc3c2N2CCCN(CC(=O)N(C)C)CC2)cc1 [compound 333, 4-(4-(2-(dimethylamino)-2-oxoethyl)-1,4-diazepan-1-yl)-3-((4-methoxyphenyl)sulfonyl)-N,N-dimethylquinoline-6-carboxamide] was tested, and the cytotoxicity at 40 µM was 0%.

With CCOC(=O)c1ccc2ncc(S(=O)(=O)c3ccc(OC)cc3)c(-n3ccnn3)c2c1 [compound 184, ethyl 3-((4-methoxyphenyl)sulfonyl)-4-(1H-1,2,3-triazol-1-yl)quinoline-6-carboxylate] the cytotoxicity at 10 µM was 5%.

Work on CCCCOc1ccc(S(=O)(=O)c2cnc3ccc(SC)cc3c2N2CCC(N3CCC(O)CC3)CC2)cc1 [compound 162, 1′-(3-((4-butoxyphenyl)sulfonyl)-6-(methylthio)quinolin-4-yl)-[1,4′-bipiperidin]-4-ol] yielded a cytotoxicity at 40 µM of 70%.
